Results from US20150315241A1, “Antibiotic Peptides” (priority 2007, published 2015).
Values after ≈ are worked out from the molar mass of the structure shown. Read-outs that look alike come from different tables or passages of the source. Where a SMILES comes first, the peptide text is derived from it. Bridges are numbered along the chain shown (N, C = ends). Roman numbers before positions name the chains, in order. [ ]: non-standard residue; d: D form. Hyp = O=C(O)[C@@H]1C[C@@H](O)CN1; Orn = NCCC[C@H](N)C(=O)O; Dab = NCC[C@H](N)C(=O)O

What was measured:
[1] = system: K. Pneumonia K6, ATCC 700603; test: Growth inhibition assay (MIC); assay type: cell-based, Klebsiella pneumoniae; details: multidrug resistant strain; 1% TSB, 37° C., 20 hrs
In short: (§1)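 Read-out: A595 after 20 hrs at 37° C. Bacteria from overnight NB culture, 5×10^6 CFU/mL in 1% TSB, mixed with twofold peptide dilutions (final 125 μg/mL–60 ng/mL). Triplicate wells; water negative control.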

K. Pneumonia 123132 = test: Growth inhibition assay (MIC); assay type: cell-based, Klebsiella pneumoniae
In short: as §1

E. coli D31 = assay type: cell-based, Escherichia coli; details: D31, 20 h
In short: as §1

B. subtilis 347 = assay type: cell-based, Bactillus subtillis
In short: (§2)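 Bacteria grown overnight in NB at 37° C. were adjusted to 5×10^6 CFU/mL in 1% TSB and mixed 1:1 with a two-fold peptide series (final 125 μg/mL–60 ng/mL). After 20 hrs at 37° C., A595 was read; triplicates.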

E. coli 45849 = test: Growth inhibition assay (MIC); assay type: cell-based, Escherichia coli
In short: as §1

K. pneumonia 681 = assay type: cell-based, Klebsiella pneumoniae
In short: as §2

[2] = system: R. radiobatter ATCC 15955; test: Growth inhibition assay (MIC); assay type: cell-based, Rhizobium radiobacter
In short: as §1

E. coli BL 21 AI = test: Growth inhibition assay (MIC); assay type: cell-based, Escherichia coli; details: 1% TSB, 37° C., 20 hrs
In short: as §2

M. luteus ATCC 10240 = assay type: cell-based, Micrococcus luteus
In short: as §2

in vitro = in vitro ADME, mouse
Method: Serum stability studies were carried out in duplicate as described by Hoffmann et al.. Briefly, 28 μL of an aqueous peptide or peptidomimetics solution (0.5 mg/mL) was added to 0.2 mL freshly pooled 25% mouse serum (Sigma-Aldrich GmbH, Taufkirchen, Germany) in water. The mixtures were incubated at 37° C. under gentle stirring. The proteins were precipitated with 40 μL of 15% aqueous TCA after incubation times of 0, 0.5, 1, 2, 4 and 6 h at 0° C. for 20 min before centrifuged (13500×G) at 4° C. for 5 min. The supernatants of all samples (240 μL) were neutralized with 1 mol/L aqueous NaOH and immediately stored at −20° C. The supernatants were analyzed by RP-HPLC using a linear acetonitrile gradient as described above with 0.1% TFA as ion pair reagent. Collected fractions of the main peaks were further analyzed by tandem mass spectrometry (MALDI-TOF/TOF-MS, 4700 Proteomics Analyzer, Applied Biosystems GmbH, Weiterstadt, Germany) in positive ion reflector mode using α-cyanohydroxycinnamic acid (50% CH3CN in 0.1% aqueous TFA) as matrix to identify the degradation products of the peptides and peptidomimetics, i.e., metabolites, at the different time points. Serum control samples consisted of 200 μL of pooled 25% mouse serum in water, which were also precipitated with 40 μL 15% aqueous TCA, as described before. Peptide reference samples consisted of 28 μL of the peptide stock solution diluted in 0.2 mL water and 40 μL of 15% aqueous trichloroacetic acid (TCA).

S. typhi S5 = assay type: cell-based, Salmonella typhi; details: S5, 20 h
In short: as §1

[3] = system: S. enterica subsp. Enterica serovar. typhi G10215 ATCC 700408; assay type: cell-based, Salmonella enterica; details: ATCC 700408, 20 h
In short: as §1

E. coli 10233 = assay type: cell-based, Escherichia coli
In short: as §2

E. coli 1103 = assay type: cell-based, Escherichia coli
In short: as §2

[4] = 25% aqueous mouse serum, 37° C., read-out: Half-life time
[5] = multidrug resistant strain, 1% TSB, 37° C., 20 hrs

Structure (SMILES) | MIC K. Pneumonia K6, ATCC 700603 [1] | MIC K. Pneumonia 123132 (K. Pneumonia 123132; 20 h) | MIC E. coli D31 (E. coli D31) | MIC B. subtilis 347 (B. subtilis 347; 1% TSB, 37° C., 20 hrs) | MIC E. coli 45849 (E. coli 45849; 45849, 20 h) | MIC K. pneumonia 681 (K. pneumonia 681; 1% TSB, 37° C., 20 hrs) | MIC R. radiobatter ATCC 15955 ([2]; ATCC 15955, 20 h) | MIC E. coli BL 21 AI (E. coli BL 21 AI) | MIC M. luteus ATCC 10240 (M. luteus ATCC 10240; 1% TSB, 37° C., 20 hrs) | half-life at 0.061 mg/mL (in vitro; [4]) | MIC S. typhi S5 (S. typhi S5) | MIC S. enterica subsp. Enterica serovar. typhi G10215 ATCC 700408 [3] | MIC E. coli 10233 (E. coli 10233; 1% TSB, 37° C., 20 hrs) | MIC E. coli 1103 (E. coli 1103; 1% TSB, 37° C., 20 hrs) | MIC K. Pneumonia 123132 (K. Pneumonia 123132; [5]) | MIC B. subtilis 347 (B. subtilis 347; 347, 20 h) | MIC E. coli 45849 (E. coli 45849; [5]) | MIC K. pneumonia 681 (K. pneumonia 681; 20 h) | MIC R. radiobatter ATCC 15955 [2, 5] | MIC E. coli 10233 (E. coli 10233; 10233, 20 h) | other results
CC[C@H](C)[C@H](NC(=O)[C@H](Cc1ccc(O)cc1)NC(=O)[C@@H](NC(=O)[C@@H]1CCCN1C(=O)[C@H](CCCNC(=N)N)NC(=O)[C@H](CC(N)=O)NC(=O)[C@H](CC(N)=O)NC(=O)[C@@H](N)CCCN)C(C)C)C(=O)N1CCC[C@H]1C(=O)N[C@@H](CCCN)C(=O)N1CCC[C@H]1C(=O)N[C@@H](CCCNC(=N)N)C(=O)N1CCC[C@H]1C(=O)N1CCC[C@H]1C(=O)N[C@@H](Cc1c[nH]cn1)C(=O)N1CCC[C@H]1C(=O)N[C@@H](CCCNC(=N)N)C(=O)N[C@@H](CC(C)C)C(N)=O [compound 12] (H-[Orn]NNRPVYIP[Orn]PRPPHPRL-NH2) | 4 µg/mL (≈ 1.86 µM) | 4 µg/mL (≈ 1.86 µM) | 4 µg/mL (≈ 1.86 µM) | 62.5 µg/mL (≈ 29.1 µM) | 1 µg/mL (≈ 0.465 µM) | 7.81 µg/mL (≈ 3.63 µM) | 0.65 µg/mL (≈ 0.302 µM) | 0.98 µg/mL (≈ 0.456 µM) | 1.95 µg/mL (≈ 0.907 µM) | 15 min | <0.5 µg/mL | <0.25 µg/mL | 0.98 to 1.95 µg/mL | 3.91 µg/mL (≈ 1.82 µM) |  |  |  |  |  |  | 
CC[C@H](C)[C@H](NC(=O)[C@H](Cc1ccc(O)cc1)NC(=O)[C@@H](NC(=O)[C@@H]1CCCN1C(=O)[C@H](CCCNC(=N)N)NC(=O)[C@H](CC(N)=O)NC(=O)[C@H](CC(N)=O)NC(=O)[C@H](CCCN)NC(C)=O)C(C)C)C(=O)N1CCC[C@H]1C(=O)N[C@@H](CCCN)C(=O)N1CCC[C@H]1C(=O)N[C@@H](CCCNC(=N)N)C(=O)N1CCC[C@H]1C(=O)N1CCC[C@H]1C(=O)N[C@@H](Cc1c[nH]cn1)C(=O)N1CCC[C@H]1C(=O)N[C@@H](CCCNC(=N)N)C(=O)N[C@@H](CC(C)C)C(N)=O [compound 13] (Ac-[Orn]NNRPVYIP[Orn]PRPPHPRL-NH2) | 8 µg/mL (≈ 3.65 µM) | 8 µg/mL (≈ 3.65 µM) | 4 µg/mL (≈ 1.82 µM) | 125 µg/mL (≈ 57 µM) | 2 µg/mL (≈ 0.912 µM) | 3.91 µg/mL (≈ 1.78 µM) | <0.16 µg/mL | 1.95 µg/mL (≈ 0.889 µM) | 1.95 µg/mL (≈ 0.889 µM) | 15 min | <0.5 µg/mL | <0.25 µg/mL | 1.95 µg/mL (≈ 0.889 µM) | 3.81 µg/mL (≈ 1.74 µM) |  |  |  |  |  |  | degradation pathway in serum (N-/C-terminal) (in vitro; 25% mouse serum, metabolites by MALDI-MS): not degraded N-terminally, but only from the C-terminal end
CC[C@H](C)[C@H](NC(=O)[C@@H]1CCCN1C(=O)[C@H](CCCNC(=N)N)NC(=O)[C@@H]1CCCN1C(=O)[C@H](Cc1c[nH]cn1)NC(=O)[C@@H]1CCCN1C(=O)[C@@H]1CCCN1C(=O)[C@H](CCCNC(=N)N)NC(=O)[C@@H]1CCCN1C(=O)[C@H](CCCNC(=N)N)NC(=O)[C@@H]1CCCN1C(=O)[C@@H](NC(=O)[C@H](Cc1ccc(O)cc1)NC(=O)[C@@H](NC(=O)[C@@H]1CCCN1C(=O)[C@H](CCCNC(=N)N)NC(=O)[C@H](CC(N)=O)NC(=O)[C@H](CC(N)=O)NC(=O)[C@@H](N)CCCN)C(C)C)[C@@H](C)CC)C(=O)N[C@@H](CCCNC(=N)N)C(=O)N[C@H](C(=O)O)C(C)C [compound 23] (H-[Orn]NNRPVYIPRPRPPHPRPIRV-OH) | 32 µg/mL (≈ 12.6 µM) |  | 64 µg/mL (≈ 25.1 µM) |  |  |  |  | 1.95 to 3.91 µg/mL |  | 240 min | 8 µg/mL (≈ 3.14 µM) | 8 µg/mL (≈ 3.14 µM) |  |  | 16 µg/mL (≈ 6.28 µM) | 125 µg/mL (≈ 49.1 µM) | 8 µg/mL (≈ 3.14 µM) | 62.5 µg/mL (≈ 24.5 µM) | 0.65 µg/mL (≈ 0.255 µM) | 3.91 µg/mL (≈ 1.54 µM) | MIC M. luteus ATCC 10240 (M. luteus ATCC 10240; ATCC 10240, 20 h): 0.12 µg/mL (≈ 0.0471 µM); MIC E. coli 1103 (E. coli 1103; 1103, 20 h): 7.81 µg/mL (≈ 3.07 µM)
CC[C@H](C)[C@H](NC(=O)[C@H](Cc1ccc(O)cc1)NC(=O)[C@@H](NC(=O)[C@@H]1CCCN1C(=O)[C@H](CCCNC(=N)N)NC(=O)[C@H](CC(N)=O)NC(=O)[C@H](CC(N)=O)NC(=O)[C@@H](N)CCCN)C(C)C)C(=O)N1CCC[C@H]1C(=O)N[C@@H](CCCNC(=N)N)C(=O)N1C[C@H](O)C[C@H]1C(=O)N[C@@H](CCCNC(=N)N)C(=O)N1CCC[C@H]1C(=O)N1CCC[C@H]1C(=O)N[C@@H](Cc1c[nH]cn1)C(=O)N1CCC[C@H]1C(=O)N[C@@H](CCCNC(=N)N)C(=O)N[C@@H](CC(C)C)C(N)=O [compound 45] (H-[Orn]NNRPVYIPR[Hyp]RPPHPRL-NH2) | 4 µg/mL (≈ 1.81 µM) |  | 8 µg/mL (≈ 3.62 µM) |  |  |  |  |  |  |  | <0.5 µg/mL | 2 µg/mL (≈ 0.906 µM) |  |  | 4 µg/mL (≈ 1.81 µM) | 62.5 µg/mL (≈ 28.3 µM) | 1 µg/mL (≈ 0.453 µM) | 7.81 µg/mL (≈ 3.54 µM) | 0.65 µg/mL (≈ 0.294 µM) | 1.95 to 3.91 µg/mL | MIC E. coli 1103 (E. coli 1103; 1103, 20 h): 7.81 µg/mL (≈ 3.54 µM)
CC[C@H](C)[C@H](NC(=O)[C@H](Cc1ccc(O)cc1)NC(=O)[C@@H](NC(=O)[C@@H]1CCCN1C(=O)[C@H](CCCNC(=N)N)NC(=O)[C@H](CC(N)=O)NC(=O)[C@H](CC(N)=O)NC(=O)[C@H](CCCN)NC(C)=O)C(C)C)C(=O)N1CCC[C@H]1C(=O)N[C@@H](CCCNC(=N)N)C(=O)N1CCC[C@H]1C(=O)N[C@@H](CCCNC(=N)N)C(=O)N1CCC[C@H]1C(=O)N1CCC[C@H]1C(=O)N[C@@H](Cc1c[nH]cn1)C(=O)N1CCC[C@H]1C(=O)N[C@@H](CCCNC(=N)N)C(=O)N[C@@H](CC(C)C)C(=O)NCC[C@H](NC(=O)[C@H](CC(C)C)NC(=O)[C@H](CCCNC(=N)N)NC(=O)[C@@H]1CCCN1C(=O)[C@H](Cc1c[nH]cn1)NC(=O)[C@@H]1CCCN1C(=O)[C@@H]1CCCN1C(=O)[C@H](CCCNC(=N)N)NC(=O)[C@@H]1CCCN1C(=O)[C@H](CCCNC(=N)N)NC(=O)[C@@H]1CCCN1C(=O)[C@@H](NC(=O)[C@H](Cc1ccc(O)cc1)NC(=O)[C@@H](NC(=O)[C@@H]1CCCN1C(=O)[C@H](CCCNC(=N)N)NC(=O)[C@H](CC(N)=O)NC(=O)[C@H](CC(N)=O)NC(=O)[C@H](CCCN)NC(C)=O)C(C)C)[C@@H](C)CC)C(=O)O [compound 83] (I: Ac-[Orn]NNRPVYIPRPRPPHPRL[Dab]-OH / II: Ac-[Orn]NNRPVYIPRPRPPHPRL; amide I:19-II:C) | 8 µg/mL (≈ 1.76 µM) |  | 2 µg/mL (≈ 0.439 µM) |  |  |  |  | 1.95 µg/mL (≈ 0.428 µM) |  |  | 4 µg/mL (≈ 0.878 µM) | 4 µg/mL (≈ 0.878 µM) |  |  | 8 µg/mL (≈ 1.76 µM) | 15.6 µg/mL (≈ 3.43 µM) | 8 µg/mL (≈ 1.76 µM) | 125 µg/mL (≈ 27.5 µM) |  | 31.25 µg/mL (≈ 6.86 µM) | MIC M. luteus ATCC 10240 (M. luteus ATCC 10240; ATCC 10240, 20 h): 1.95 µg/mL (≈ 0.428 µM); half-life (in vitro; [4]): 15 min
